Assays:
[1] = Selectivity ratio of Ki for delta opioid receptor in mouse whole brain membranes without cerebellum to Ki for kappa opioid receptor in guinea pig cerebellum membranes; format: cell membranes
[2] = Selectivity ratio of Ki for mu opioid receptor in mouse whole brain membranes without cerebellum to Ki for kappa opioid receptor in guinea pig cerebellum membranes; format: cell membranes
[3] = target: Kappa-type opioid receptor (Cavia porcellus, UniProt P41144); assay: Displacement of [3H]U-69,593 from kappa opioid receptor in guinea pig cerebellum membranes; format: cell membranes, Membrane
[4] = target: Delta-type opioid receptor (Mus musculus, UniProt P32300); assay: Displacement of [3H]DPDPE from delta opioid receptor in mouse whole brain membranes without cerebellum; format: cell membranes, Membrane
Mu-type opioid receptor = Mu-type opioid receptor (Mus musculus, UniProt P42866); assay: Displacement of [3H]DAMGO from mu opioid receptor in mouse whole brain membranes without cerebellum; format: cell membranes, Membrane
Mu-type opioid receptor, sequence (P42866 whole entry): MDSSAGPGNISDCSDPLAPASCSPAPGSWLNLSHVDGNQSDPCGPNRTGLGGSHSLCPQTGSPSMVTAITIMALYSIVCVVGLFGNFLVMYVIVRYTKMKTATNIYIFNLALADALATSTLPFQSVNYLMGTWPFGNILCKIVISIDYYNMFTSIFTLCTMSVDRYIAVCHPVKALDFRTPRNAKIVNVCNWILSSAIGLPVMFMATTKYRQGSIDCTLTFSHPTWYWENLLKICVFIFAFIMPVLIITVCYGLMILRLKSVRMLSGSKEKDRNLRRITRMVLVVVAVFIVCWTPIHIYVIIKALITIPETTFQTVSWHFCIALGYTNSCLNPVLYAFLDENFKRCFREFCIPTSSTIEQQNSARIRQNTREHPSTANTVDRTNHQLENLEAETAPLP

Delta-type opioid receptor, sequence (P32300 whole entry): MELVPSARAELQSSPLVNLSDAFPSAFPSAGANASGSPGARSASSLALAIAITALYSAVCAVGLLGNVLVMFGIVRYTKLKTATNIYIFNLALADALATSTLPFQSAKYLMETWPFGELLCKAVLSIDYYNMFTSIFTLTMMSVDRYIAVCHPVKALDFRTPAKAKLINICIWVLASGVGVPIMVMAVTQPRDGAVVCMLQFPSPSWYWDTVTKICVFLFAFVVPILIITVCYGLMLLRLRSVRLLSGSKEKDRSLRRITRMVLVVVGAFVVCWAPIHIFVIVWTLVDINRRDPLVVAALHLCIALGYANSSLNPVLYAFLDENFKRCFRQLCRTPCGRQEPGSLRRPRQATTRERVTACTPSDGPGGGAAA
Kappa-type opioid receptor, sequence (P41144 whole entry): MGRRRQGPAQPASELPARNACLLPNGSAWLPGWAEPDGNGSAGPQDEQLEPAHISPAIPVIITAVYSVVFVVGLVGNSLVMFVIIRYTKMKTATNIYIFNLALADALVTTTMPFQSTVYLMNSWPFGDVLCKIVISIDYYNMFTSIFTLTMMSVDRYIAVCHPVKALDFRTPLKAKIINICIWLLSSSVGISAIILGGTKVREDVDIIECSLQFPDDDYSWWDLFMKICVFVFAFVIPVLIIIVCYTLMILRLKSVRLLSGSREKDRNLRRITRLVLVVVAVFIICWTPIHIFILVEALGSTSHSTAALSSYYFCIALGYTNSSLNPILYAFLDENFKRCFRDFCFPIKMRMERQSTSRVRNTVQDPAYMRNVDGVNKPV

Row | Structure (SMILES) | Ratio Ki [1] | Ratio Ki [2] | Ki [3] | Ki [4] | Ki (Mu-type opioid receptor)
1 | CN(C(=O)/C=C/c1ccoc1)[C@H]1CC[C@@]2(O)[C@H]3Cc4ccc(O)cc4[C@@]2(CCN3CC2CC2)C1 | 3.8 | 2 | 0.163 nM | 0.623 nM | 0.324 nM
2 | CN(C(=O)/C=C/c1ccoc1)[C@H]1CC[C@@]2(O)[C@H]3CC4=C(CCCC4)[C@@]2(CCN3CC2CC2)C1 | 13 | 71 | 2.06 nM | 26.4 nM | 147 nM
3 | CN(C(=O)/C=C/c1ccoc1)[C@H]1CC[C@@]2(O)[C@H]3CC4=C(C[C@H](O)CC4)[C@@]2(CCN3CC2CC2)C1 | 7.7 | 4.8 | 1.1 nM | 8.45 nM | 5.26 nM
4 | CN(C(=O)/C=C/c1ccoc1)[C@H]1CC[C@H]2[C@H]3CC4=C(CCCC4)[C@@]2(CCN3CC2CC2)C1 | 14 | 3.8 | 2.28 nM | 32.9 nM | 8.62 nM
5 | CN(C(=O)/C=C/c1ccoc1)[C@H]1CC[C@@]2(O)[C@H]3Cc4ccccc4[C@@]2(CCN3CC2CC2)C1 | 19 | 22 | 0.303 nM | 5.65 nM | 6.52 nM
6 | CN(C(=O)/C=C/c1ccoc1)[C@@H]1CC[C@@]2(O)[C@H]3CC4=C(C[C@H](O)CC4)[C@@]2(CCN3CC2CC2)C1 | 65 | 79 | 0.733 nM | 47.5 nM | 57.6 nM
7 | CN(C(=O)/C=C/c1ccoc1)[C@H]1CC[C@@]2(O)[C@H]3CC4=C(C[C@@H](O)CC4)[C@@]2(CCN3CC2CC2)C1 | 19 | 12 | 0.451 nM | 8.66 nM | 5.49 nM
8 | CN(C(=O)/C=C/c1ccoc1)[C@H]1CC[C@@]2(O)[C@H]3CC4=C(CC(=O)CC4)[C@@]2(CCN3CC2CC2)C1 | 20 | 12 | 2.23 nM | 44.5 nM | 26 nM
9 | CN(C(=O)/C=C/c1ccoc1)[C@@H]1CC[C@@]2(O)[C@H]3CC4=C(CC(=O)CC4)[C@@]2(CCN3CC2CC2)C1 | 5.1 | 3.5 | 14.5 nM | 74.2 nM | 51.1 nM
10 | CN(C(=O)/C=C/c1ccoc1)[C@@H]1CC[C@@]2(O)[C@H]3CC4=C(C[C@@H](O)CC4)[C@@]2(CCN3CC2CC2)C1 | 328 | 49 | 0.711 nM | 233 nM | 34.7 nM
11 | CN(C(=O)/C=C/c1ccoc1)[C@H]1CC[C@@]2(O)[C@H]3Cc4cccc5c4[C@@]2(CCN3CC2CC2)[C@H]1O5 | 146 | 26 | 0.34 nM | 49.5 nM | 8.88 nM
12 | CN(C(=O)/C=C/c1ccoc1)[C@@H]1CC[C@@]2(O)[C@H]3Cc4ccccc4[C@@]2(CCN3CC2CC2)C1 | 95 | 36 | 0.34 nM | 32.4 nM | 12.3 nM

Source: ChEMBL document CHEMBL2202959, “Essential structure of opioid κ receptor agonist nalfurafine for binding to the κ receptor 3: synthesis of decahydro(iminoethano)phenanthrene derivatives with an oxygen functionality at the 3-position and their pharmacologies” (Bioorg Med Chem Lett, 2012)
